Data as given in ChEMBL document CHEMBL3124860, “Fragment-based identification of amides derived from trans-2-(pyridin-3-yl)cyclopropanecarboxylic acid as potent inhibitors of human nicotinamide phosphoribosyltransferase (NAMPT)” (J Med Chem, 2014).
Converted amounts (≈) assume the structure as drawn.

How the values were obtained:
[1] = Clearance in human liver microsomes at 1 uM up to 60 mins by LC-MS/MS analysis; format: ADME
physchem = settings: buffer
[2] = Clearance in CD-1 mouse hepatocytes at 1 uM up to 3 hrs by LC-MS/MS analysis; format: ADME, cell-based, Hepatocyte
[3] = Cmax in NCR nude mouse at 10 mg/kg, po bid after 24 hrs; format: ADME, organism-based; set-up: dose 10 mg/kg, route oral; settings: in vivo
[4] = AUC (0 to last) in NCR nude mouse at 10 mg/kg, po bid after 24 hrs; format: ADME, organism-based; set-up: time 0 - last, dose 10 mg/kg, route oral; settings: plasma
[5] = Clearance in CD-1 mouse liver microsomes at 1 uM up to 60 mins by LC-MS/MS analysis; format: ADME, Microsome
in vitro = settings: dog, MDCK
[6] = buffer, 24 h

Row | Compound | CLhep predicted at 1 µM [1] | solubility at 24 h (physchem) | also measured
1 | Nc1ccc(CNC(=O)Nc2ccc(S(=O)(=O)c3ccccc3)cc2)cn1 | 5 mL/min/kg | 99 µM (≈ 37.9 µg/mL) | 
2 | CCCn1cc(S(=O)(=O)c2ccc(NC(=O)[C@H]3C[C@@H]3c3cccnc3)cc2)cn1 | 13 mL/min/kg | 16 µM (≈ 6.57 µg/mL) | CLhep predicted at 1 µM [2]: 75 mL/min/kg; Cmax [3]: 34.6 µM; AUC(0-t) at 24 h [4]: 126 µM·h; CLhep predicted at 1 µM [5]: 79 mL/min/kg; Papp A→B at 10 µM (in vitro): 7.1 ×10⁻⁶ cm/s
3 | CC(C)n1cc(S(=O)(=O)c2ccc(NC(=O)[C@@H]3C[C@H]3c3cccnc3)cc2)cn1 | 12 mL/min/kg | 59 µM (≈ 24.2 µg/mL) | 
4 | CC(C)n1cc(S(=O)(=O)c2ccc(NC(=O)[C@H]3C[C@@H]3c3cccnc3)cc2)cn1 | 11 mL/min/kg | 77 µM (≈ 31.6 µg/mL) | CLhep predicted at 1 µM [2]: 76 mL/min/kg; CLhep predicted at 1 µM [5]: 80 mL/min/kg; Papp A→B at 10 µM (in vitro): 9.7 ×10⁻⁶ cm/s
5 | O=S1(=O)N=C(NCc2ccc(S(=O)(=O)c3ccccc3)cc2)Nc2ccncc21 | 6 mL/min/kg | 1 µM (≈ 0.428 µg/mL) | Papp A→B at 10 µM (in vitro): 0.8 ×10⁻⁶ cm/s
6 | O=S1(=O)NC(NCc2ccc(S(=O)(=O)N3CCC(N4CCCC4)CC3)cc2)=Nc2ccncc21 | 8 mL/min/kg | 104 µM (≈ 52.5 µg/mL) | Papp A→B at 10 µM (in vitro): 0.1 ×10⁻⁶ cm/s
7 | O=C(Nc1ccc(S(=O)(=O)N2CC3CCC(C2)O3)cc1)[C@@H]1C[C@H]1c1cccnc1 (mixture of isomers) | 16 mL/min/kg |  | 
8 | CC(C)(C)OC(=O)N1C[C@@H]2CCN(C(=O)[C@@H]3C[C@H]3c3cccnc3)[C@@H]2C1 (racemic) | 18 mL/min/kg | 165 µM (≈ 59 µg/mL) | 
9 | Cc1nn(C(C)C)cc1S(=O)(=O)c1ccc(NC(=O)[C@@H]2C[C@H]2c2cccnc2)cc1 (racemic) | 16 mL/min/kg | 1 µM (≈ 0.425 µg/mL) | 
10 | O=C(Nc1ccc(S(=O)(=O)c2cnn(C3CCOCC3)c2)cc1)[C@@H]1C[C@H]1c1cccnc1 (racemic) | 15 mL/min/kg |  | CLhep predicted at 1 µM [2]: 51 mL/min/kg; CLhep predicted at 1 µM [5]: 77 mL/min/kg
11 | CC(C)(C)OC(=O)N1C[C@H]2CCN(C(=O)[C@@H]3C[C@H]3c3cccnc3)[C@H]2C1 (racemic) | 18 mL/min/kg | 165 µM (≈ 59 µg/mL) | 
12 | O=C(NCCCCC1CCN(C(=O)c2ccccc2)CC1)[C@@H]1C[C@H]1c1cccnc1 (racemic) | 19 mL/min/kg | 223 µM (≈ 90.4 µg/mL) | 
13 | O=C(NCCCCCCOc1ccc(Cl)cc1)[C@@H]1C[C@H]1c1cccnc1 (racemic) | 19 mL/min/kg | 13 µM (≈ 4.85 µg/mL) | 
14 | Cc1ccc(S(=O)(=O)c2ccc(NC(=O)[C@@H]3C[C@H]3c3cccnc3)cc2)cn1 (racemic) | 10 mL/min/kg | 6 µM (≈ 2.36 µg/mL) | 
15 | CS(=O)(=O)c1cccc(S(=O)(=O)c2ccc(NC(=O)[C@@H]3C[C@H]3c3cccnc3)cc2)c1 (racemic) | 9 mL/min/kg | 1 µM (≈ 0.457 µg/mL) | CLhep predicted at 1 µM [2]: 54 mL/min/kg; CLhep predicted at 1 µM [5]: 74 mL/min/kg; Papp A→B at 10 µM (in vitro): 2.7 ×10⁻⁶ cm/s
16 | O=C(Nc1ccc(S(=O)(=O)c2cccc(OC(F)(F)F)c2)cc1)[C@@H]1C[C@H]1c1cccnc1 (racemic) | 10 mL/min/kg | 1 µM (≈ 0.462 µg/mL) | CLhep predicted at 1 µM [2]: 49 mL/min/kg; CLhep predicted at 1 µM [5]: 69 mL/min/kg; Papp A→B at 10 µM (in vitro): 7.4 ×10⁻⁶ cm/s
17 | O=C(Nc1ccc(S(=O)(=O)c2cccc(C(F)(F)F)c2)cc1)[C@@H]1C[C@H]1c1cccnc1 (racemic) | 10 mL/min/kg | 1 µM (≈ 0.446 µg/mL) | 
18 | O=C(Nc1ccc(S(=O)(=O)c2cc(F)cc(F)c2)cc1)[C@@H]1C[C@H]1c1cccnc1 (racemic) | 12 mL/min/kg | 6 µM (≈ 2.49 µg/mL) | 
19 | CCn1cc(S(=O)(=O)c2ccc(NC(=O)[C@@H]3C[C@H]3c3cccnc3)cc2)cn1 (racemic) | 8 mL/min/kg | 72 µM (≈ 28.5 µg/mL) | 

Row | Compound | CLhep predicted at 1 µM [1] | solubility at 24 h (physchem) | also measured
20 | O=C(Nc1ccc(S(=O)(=O)c2cnn(CC(F)(F)F)c2)cc1)[C@@H]1C[C@H]1c1cccnc1 (racemic) | 8 mL/min/kg | 23 µM (≈ 10.4 µg/mL) | 
21 | CCCn1cc(S(=O)(=O)c2ccc(NC(=O)[C@@H]3C[C@H]3c3cccnc3)cc2)cn1 (racemic) | 12 mL/min/kg | 48 µM (≈ 19.7 µg/mL) | CLhep predicted at 1 µM [2]: 59 mL/min/kg; CLhep predicted at 1 µM [5]: 75 mL/min/kg; Papp A→B at 10 µM (in vitro): 11.5 ×10⁻⁶ cm/s
22 | CC(C)(O)Cn1cc(S(=O)(=O)c2ccc(NC(=O)[C@@H]3C[C@H]3c3cccnc3)cc2)cn1 (racemic) | 3 mL/min/kg | 155 µM (≈ 68.3 µg/mL) | 
23 | CC(C)n1cc(S(=O)(=O)c2ccc(NC(=O)[C@@H]3C[C@H]3c3cccnc3)cc2)cn1 (racemic) |  |  | CLhep predicted at 1 µM [2]: 60 mL/min/kg; CLhep predicted at 1 µM [5]: 75 mL/min/kg; solubility [6]: 66 µM (≈ 27.1 µg/mL); Papp A→B at 10 µM (in vitro): 10 ×10⁻⁶ cm/s
24 | Cc1c(S(=O)(=O)c2ccc(NC(=O)[C@@H]3C[C@H]3c3cccnc3)cc2)cnn1C(C)C (racemic) | 19 mL/min/kg | 30 µM (≈ 12.7 µg/mL) | 
25 | O=C(Nc1ccc(S(=O)(=O)c2ccccc2)cc1)[C@@H]1C[C@H]1c1cccnc1 (racemic) |  |  | CLhep predicted at 1 µM [2]: 63 mL/min/kg; CLhep predicted at 1 µM [5]: 76 mL/min/kg; solubility [6]: 20 µM (≈ 7.57 µg/mL); Papp A→B at 10 µM (in vitro): 24 ×10⁻⁶ cm/s
26 | Nc1ccc([C@@H]2C[C@H]2C(=O)Nc2ccc(S(=O)(=O)c3ccccc3)cc2)cn1 (racemic) | 6 mL/min/kg | 36 µM (≈ 14.2 µg/mL) | 
27 | O=C(Nc1ccc(S(=O)(=O)c2ccccc2)cc1)[C@@H]1C[C@H]1c1ccncc1 (racemic) | 9 mL/min/kg | 1 µM (≈ 0.378 µg/mL) | 
28 | O=C(Nc1ccc(S(=O)(=O)N2CCOCC2)cc1)[C@@H]1C[C@H]1c1cccnc1 (racemic) | 13 mL/min/kg | 88 µM (≈ 34.1 µg/mL) | 
29 | O=C(Nc1ccc(S(=O)(=O)C2CCOCC2)cc1)[C@@H]1C[C@H]1c1cccnc1 (racemic) | 13 mL/min/kg | 93 µM (≈ 35.9 µg/mL) | 
30 | O=C(NCc1ccc(S(=O)(=O)c2ccccc2)cc1)[C@@H]1C[C@H]1c1cccnc1 (racemic) | 15 mL/min/kg | 15 µM (≈ 5.89 µg/mL) | 
31 | Nc1ccc([C@@H]2C[C@H]2C(=O)NCc2ccc(S(=O)(=O)c3ccccc3)cc2)cn1 (racemic) | 9 mL/min/kg | 7 µM (≈ 2.85 µg/mL) | 
32 | O=C(NCc1ccc(S(=O)(=O)c2ccccc2)cc1)[C@@H]1C[C@H]1c1ccncc1 (racemic) | 9 mL/min/kg | 59 µM (≈ 23.2 µg/mL) | 
33 | CC(C)(C)OC(=O)N1CC2(CCN(C(=O)[C@H]3C[C@@H]3c3cccnc3)C2)C1 (relative stereo) | 10 mL/min/kg | 133 µM (≈ 47.5 µg/mL) | 
34 | O=C(Nc1ccc(S(=O)(=O)c2ccccc2)cc1)[C@H]1C[C@@H]1c1cccnc1 (single isomer, unassigned; enantiomer 1) | 11 mL/min/kg | 15 µM (≈ 5.68 µg/mL) | CLhep predicted at 1 µM [2]: 78 mL/min/kg; CLhep predicted at 1 µM [5]: 79 mL/min/kg; Papp A→B at 10 µM (in vitro): 21.2 ×10⁻⁶ cm/s
35 | O=C(Nc1ccc(S(=O)(=O)c2ccccc2)cc1)[C@@H]1C[C@H]1c1cccnc1 (single isomer, unassigned; enantiomer 2) | 7 mL/min/kg | 15 µM (≈ 5.68 µg/mL) | 
36 | N#CN=C(NCCCCCCOc1ccc(Cl)cc1)Nc1ccncc1 [CHS-828] | 15 mL/min/kg | 2.2 µM (≈ 0.818 µg/mL) | 
37 | O=C(/C=C/c1cccnc1)NCCCCC1CCN(C(=O)c2ccccc2)CC1 [DAPORINAD] | 15 mL/min/kg |  | 
